The values below come from publication PMC12500856 (Nature Communications, 2025).

For data set [1], the target named is T1, SgGouE (Streptomyces graminearus, UniProt K4HPM3).
T1 sequence (K4HPM3 1-246): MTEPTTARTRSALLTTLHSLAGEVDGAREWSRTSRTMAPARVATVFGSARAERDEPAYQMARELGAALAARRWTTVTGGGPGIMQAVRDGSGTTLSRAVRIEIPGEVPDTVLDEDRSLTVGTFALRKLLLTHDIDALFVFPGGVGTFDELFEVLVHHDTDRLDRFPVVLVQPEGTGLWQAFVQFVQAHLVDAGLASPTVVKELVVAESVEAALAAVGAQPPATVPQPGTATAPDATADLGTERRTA
The experiment in a line: HPLC turnover assay. Format: biochemical.

In data set [2] the target is HDHD1 (Homo sapiens, UniProt Q08623). The experiment in a line: in vitro competition assay, dephosphorylation. As to conditions: competition with UMP. Format: biochemical.
Chain of HDHD1 (Q08623 whole entry): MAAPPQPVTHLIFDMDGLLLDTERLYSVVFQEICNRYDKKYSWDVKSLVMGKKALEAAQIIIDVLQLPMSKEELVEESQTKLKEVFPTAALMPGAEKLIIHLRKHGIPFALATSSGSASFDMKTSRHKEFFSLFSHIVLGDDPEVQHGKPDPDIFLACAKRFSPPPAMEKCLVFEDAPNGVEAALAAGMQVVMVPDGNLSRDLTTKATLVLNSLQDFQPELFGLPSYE
The target in data set [3] is PhoA (Escherichia coli, UniProt P00634). Briefly: HPLC, dephosphorylation in cascade. It is filed as biochemical. As to conditions: 50 mM Tris-HCl pH 8.0, 1 mM MgCl2, 30 °C.
Chain of PhoA (P00634 22-471): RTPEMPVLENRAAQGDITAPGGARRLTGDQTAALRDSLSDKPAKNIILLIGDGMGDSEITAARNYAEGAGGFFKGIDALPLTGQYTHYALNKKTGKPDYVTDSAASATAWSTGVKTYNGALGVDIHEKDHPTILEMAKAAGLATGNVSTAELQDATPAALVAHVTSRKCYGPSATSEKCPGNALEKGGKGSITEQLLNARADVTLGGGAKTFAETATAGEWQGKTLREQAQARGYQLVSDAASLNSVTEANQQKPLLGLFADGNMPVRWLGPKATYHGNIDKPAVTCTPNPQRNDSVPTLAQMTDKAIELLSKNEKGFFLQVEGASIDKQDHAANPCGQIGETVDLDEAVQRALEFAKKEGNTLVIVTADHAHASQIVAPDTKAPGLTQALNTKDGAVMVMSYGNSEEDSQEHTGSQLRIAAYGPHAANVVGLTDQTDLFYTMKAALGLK
Data set [4] addresses T1, SgGouE. The experiment in a line: HPLC turnover assay. It is filed as biochemical. As to conditions: 50 mM Tris-HCl pH 8.0, 1 mM CMP, 1 mM MgCl2, 30 °C (cascade).
Data set [5] concerns the target T2, CodA (Escherichia coli, UniProt P25524).
T2 sequence (P25524 2-427): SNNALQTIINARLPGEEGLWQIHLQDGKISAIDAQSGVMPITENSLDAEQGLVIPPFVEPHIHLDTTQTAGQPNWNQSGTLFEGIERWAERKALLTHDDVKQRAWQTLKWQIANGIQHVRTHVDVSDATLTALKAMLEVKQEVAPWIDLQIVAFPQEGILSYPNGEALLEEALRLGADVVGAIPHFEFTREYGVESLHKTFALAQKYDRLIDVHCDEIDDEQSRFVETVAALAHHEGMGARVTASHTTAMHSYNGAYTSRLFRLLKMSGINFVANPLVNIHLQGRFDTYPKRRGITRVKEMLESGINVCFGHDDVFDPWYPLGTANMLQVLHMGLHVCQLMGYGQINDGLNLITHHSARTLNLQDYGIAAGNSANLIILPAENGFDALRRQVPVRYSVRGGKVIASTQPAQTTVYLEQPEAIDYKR
The experiment in a line: HPLC, deamination in cascade. Format: biochemical. As to conditions: 50 mM Tris-HCl pH 8.0, 1 mM MgCl2, 30 °C.

Substrate in data set [6]: O=c1ccn([C@@H]2O[C@H](COP(=O)(O)O)[C@@H](O)[C@H]2O)c(=O)[nH]1
The experiment in a line: kinetic analysis of UMP hydrolysis. It is filed as biochemical, Neisseria meningitidis.

For the molecule `O=c1ccn([C@@H]2O[C@H](COP(=O)(O)O)[C@@H](O)[C@H]2O)c(=O)[nH]1` [UMP], the relative efficiency in data set [1] came out at 50%.

For `O=c1[nH]cc([C@@H]2O[C@H](COP(=O)(O)O)[C@@H](O)[C@H]2O)c(=O)[nH]1` [ΨMP], in data set [2], the “in vitro competition assay, dephosphorylation” value is “HDHD1 has prominent specificity and activity against the latter substrate”. The “HPLC, dephosphorylation in cascade” value in data set [3] is recorded as “the phosphatase PhoA was utilized for the dephosphorylation of ΨMP for related assays”.

With `Nc1ccn([C@@H]2O[C@H](COP(=O)(O)O)[C@@H](O)[C@H]2O)c(=O)n1` [CMP], the HPLC turnover assay entry in data set [4] is given as “we found that SgGouE indicates the most superior performance”.

As to `Nc1cc[nH]c(=O)n1` [cytosine], the “HPLC, deamination in cascade” value in data set [5] is given as “cytosine can be easily deaminated by CodA (deaminase)”.

B1: NmYgdH (Neisseria meningitidis MC58) (protein)
chain: MENTNRVPEQARYDAERRQADEALAGVFPAVSIFGSARTPQNHADYAFACRLARRLSDSGIAVISGGGPGIMEAANKGAFAGKSVSVGLNIVLPHEQKPNPYQDIALRFSRFAERKAVFFRYSQAYVVMPGGFGTLDELFEILTLVQTGKVPPRPIVLVGKAFWSGLAEWINAQLLARGLISEGAVSLFAISDDEDEIVAYLSEHGLQTA
Consider B1, for which, in data set [6], the Km – broadly, the substrate concentration at which the rate is half of its maximum – amounted to 11.78 ± 0.81 mM; the kcat (commonly the number of substrate molecules converted per active site and unit of time at saturation) was 81.90 ± 2.60 s⁻¹.
